Data: the supplement of paper PMC10307832

Assays:
Assay in all cases: relative viability (nuclei count vs DMSO), 5 days (fraction); higher = more cells survive
Everolimus + Crizotinib = compound: CO[C@H]1C[C@@H]2CC[C@@H](C)[C@@](O)(O2)C(=O)C(=O)N2CCCC[C@H]2C(=O)O[C@H]([C@H](C)C[C@@H]2CC[C@@H](OCCO)[C@H](OC)C2)CC(=O)[C@H](C)/C=C(\C)[C@@H](O)[C@@H](OC)C(=O)[C@H](C)C[C@H](C)/C=C/C=C/C=C/1C [Everolimus] + C[C@@H](Oc1cc(-c2cnn(C3CCNCC3)c2)cnc1N)c1c(Cl)ccc(F)c1Cl [Crizotinib] (partner 1 µM)
Summary of the method: (§1)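 Relative viability is defined as nuclei in treated wells over nuclei in vehicle wells. Duplicate plates were run and medians reported. Lung cancer cell lines in 1536-well plates were dosed by pin tool one day after seeding, with one drug or with a fixed anchor-drug dose plus five library-drug doses (not always all listed) in √10 steps, and nuclei were counted after 5 days.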

Everolimus + Phenformin = compound: CO[C@H]1C[C@@H]2CC[C@@H](C)[C@@](O)(O2)C(=O)C(=O)N2CCCC[C@H]2C(=O)O[C@H]([C@H](C)C[C@@H]2CC[C@@H](OCCO)[C@H](OC)C2)CC(=O)[C@H](C)/C=C(\C)[C@@H](O)[C@@H](OC)C(=O)[C@H](C)C[C@H](C)/C=C/C=C/C=C/1C [Everolimus] + N=C(N)NC(=N)NCCc1ccccc1 [Phenformin] (partner 250 µM)
Summary of the method: as §1

Everolimus + Navitoclax = compound: CO[C@H]1C[C@@H]2CC[C@@H](C)[C@@](O)(O2)C(=O)C(=O)N2CCCC[C@H]2C(=O)O[C@H]([C@H](C)C[C@@H]2CC[C@@H](OCCO)[C@H](OC)C2)CC(=O)[C@H](C)/C=C(\C)[C@@H](O)[C@@H](OC)C(=O)[C@H](C)C[C@H](C)/C=C/C=C/C=C/1C [Everolimus] + CC1(C)CCC(c2ccc(Cl)cc2)=C(CN2CCN(c3ccc(C(=O)NS(=O)(=O)c4ccc(N[C@H](CCN5CCOCC5)CSc5ccccc5)c(S(=O)(=O)C(F)(F)F)c4)cc3)CC2)C1 [Navitoclax] (partner 0.5 µM)
Summary of the method: as §1

Everolimus + Decitabine = compound: CO[C@H]1C[C@@H]2CC[C@@H](C)[C@@](O)(O2)C(=O)C(=O)N2CCCC[C@H]2C(=O)O[C@H]([C@H](C)C[C@@H]2CC[C@@H](OCCO)[C@H](OC)C2)CC(=O)[C@H](C)/C=C(\C)[C@@H](O)[C@@H](OC)C(=O)[C@H](C)C[C@H](C)/C=C/C=C/C=C/1C [Everolimus] + Nc1ncn([C@H]2C[C@H](O)[C@@H](CO)O2)c(=O)n1 [Decitabine] (partner 2 µM)
Summary of the method: as §1

| Cell Line | relative viability (Everolimus + Crizotinib; first compound 0.01 µM) | relative viability (Everolimus + Crizotinib; first compound 0.03162 µM) | relative viability (Everolimus + Crizotinib; first compound 0.1 µM) | relative viability (Everolimus + Crizotinib; first compound 0.3162 µM) | relative viability (Everolimus + Crizotinib; first compound 1 µM) | relative viability (Everolimus + Phenformin; first compound 0.01 µM) | relative viability (Everolimus + Phenformin; first compound 0.03162 µM) | relative viability (Everolimus + Phenformin; first compound 0.1 µM) | relative viability (Everolimus + Phenformin; first compound 0.3162 µM) | relative viability (Everolimus + Phenformin; first compound 1 µM) | relative viability (Everolimus + Navitoclax; first compound 0.01 µM) | relative viability (Everolimus + Navitoclax; first compound 0.03162 µM) | relative viability (Everolimus + Navitoclax; first compound 0.1 µM) | relative viability (Everolimus + Navitoclax; first compound 0.3162 µM) | relative viability (Everolimus + Navitoclax; first compound 1 µM) | relative viability (Everolimus + Decitabine; first compound 0.01 µM) | relative viability (Everolimus + Decitabine; first compound 0.03162 µM) | relative viability (Everolimus + Decitabine; first compound 0.1 µM) | relative viability (Everolimus + Decitabine; first compound 0.3162 µM) | relative viability (Everolimus + Decitabine; first compound 1 µM) |
| --- | --- | --- | --- | --- | --- | --- | --- | --- | --- | --- | --- | --- | --- | --- | --- | --- | --- | --- | --- | --- |
| NCI-H1993 | 0.688 | 0.659 | 0.702 | 0.642 | 0.705 | 0.525 | 0.498 | 0.533 | 0.468 | 0.454 | 0.687 | 0.676 | 0.631 | 0.585 | 0.717 | 0.468 | 0.542 | 0.433 | 0.46 | 0.447 |
| NCI-H2009 | 0.693 | 0.856 | 0.612 | 0.646 | 0.763 | 0.427 | 0.464 | 0.421 | 0.451 | 0.402 | 1.04 | 1.09 | 0.898 | 0.814 | 0.836 | 0.295 | 0.313 | 0.382 | 0.288 | 0.377 |
| NCI-H2023 | 0.433 | 0.388 | 0.368 | 0.395 | 0.312 | 0.309 | 0.375 | 0.343 | 0.277 | 0.266 | 0.763 | 0.471 | 0.529 | 0.536 | 0.348 | 0.204 | 0.21 | 0.198 | 0.199 | 0.168 |
| NCI-H2085 | 0.775 | 0.719 | 0.64 | 0.655 | 0.496 | 0.573 | 0.559 | 0.395 | 0.503 | 0.521 | 0.73 | 0.811 | 0.66 | 0.83 | 0.705 | 0.508 | 0.536 | 0.483 | 0.478 | 0.395 |
| NCI-H2087 | 1.18 | 1.01 | 0.783 | 0.885 | 0.922 | 0.41 | 0.317 | 0.423 | 0.351 | 0.41 | 0.888 | 0.852 | 0.888 | 0.847 | 0.69 | 0.229 | 0.205 | 0.2 | 0.198 | 0.257 |
| NCI-H2126 | 0.755 | 0.736 | 0.671 | 0.721 | 0.665 | 0.485 | 0.45 | 0.41 | 0.48 | 0.455 | 0.515 | 0.455 | 0.4 | 0.492 | 0.485 | 0.484 | 0.421 | 0.452 | 0.505 | 0.497 |
| NCI-H2170 | 0.59 | 0.587 | 0.455 | 0.537 | 0.49 | 0.388 | 0.402 | 0.387 | 0.403 | 0.414 | 0.235 | 0.22 | 0.202 | 0.184 | 0.236 | 0.287 | 0.274 | 0.257 | 0.28 | 0.262 |
| NCI-H2347 | 0.683 | 0.568 | 0.554 | 0.546 | 0.58 | 0.388 | 0.353 | 0.351 | 0.384 | 0.26 | 0.906 | 0.453 | 0.26 | 0.453 | 0.429 | 0.567 | 0.509 | 0.553 | 0.526 | 0.548 |
| NCI-H2405 | 0.792 | 0.693 | 0.683 | 0.696 | 0.659 | 0.364 | 0.353 | 0.33 | 0.335 | 0.382 | 0.672 | 0.63 | 0.53 | 0.662 | 0.452 | 0.521 | 0.531 | 0.539 | 0.532 | 0.52 |
| NCI-H3122 | 0.219 | 0.246 | 0.238 | 0.194 | 0.192 | 0.368 | 0.45 | 0.391 | 0.37 | 0.402 | 1.05 | 0.916 | 0.82 | 0.89 | 0.617 | 0.267 | 0.253 | 0.213 | 0.215 | 0.203 |
| PC-3 [JPC-3] | 1.02 | 0.992 | 0.911 | 0.96 | 1.02 | 0.454 | 0.461 | 0.408 | 0.461 | 0.463 | 0.763 | 0.676 | 0.577 | 0.664 | 0.568 | 0.813 | 0.794 | 0.687 |  | 0.802 |
| PC-14 | 0.983 | 0.936 | 0.942 | 0.908 | 0.741 | 0.443 | 0.369 | 0.459 | 0.32 | 0.488 | 1.06 | 1.05 | 0.88 | 0.911 | 0.864 | 0.276 | 0.26 | 0.235 | 0.296 | 0.293 |
| RERF-LC-KJ | 0.804 | 0.627 | 0.683 | 0.667 | 0.567 | 0.377 | 0.426 | 0.377 | 0.381 | 0.376 | 0.778 | 0.571 | 0.47 | 0.579 | 0.488 | 0.535 | 0.594 | 0.552 | 0.541 | 0.45 |
| SK-LU-1 | 0.478 | 0.511 | 0.572 | 0.544 | 0.626 | 0.306 | 0.323 | 0.291 | 0.369 | 0.342 | 0.529 | 0.48 | 0.494 | 0.568 | 0.475 | 0.411 | 0.474 | 0.474 | 0.516 | 0.524 |
| SK-MES-1 | 0.871 | 0.689 | 0.689 | 0.644 | 0.608 | 0.55 | 0.583 | 0.574 | 0.552 | 0.545 | 0.948 | 0.688 |  | 0.715 | 0.579 | 0.346 | 0.362 | 0.335 | 0.345 | 0.501 |
| SW 1573 | 0.593 | 0.521 | 0.53 | 0.383 | 0.427 | 0.205 | 0.238 | 0.175 | 0.182 | 0.12 | 0.577 | 0.466 | 0.464 | 0.533 | 0.395 | 0.268 | 0.331 | 0.298 | 0.306 | 0.338 |
| UMC-11 | 0.271 | 0.244 | 0.239 | 0.249 | 0.286 | 0.281 | 0.249 | 0.261 | 0.294 | 0.269 | 0.171 | 0.164 | 0.166 | 0.207 | 0.179 | 0.329 | 0.359 | 0.352 | 0.367 | 0.392 |
